Measurements reported in patent EP0146113A2, “Active agent and therapeutical composition for the treatment of deincephalon failures of nervous deseases and skin diseases” (Aderhold, Dieter, priority 1983, dated 1985).

Columns and labels:
[1] = tested on: Patienten; experiment: Subcutaneous injection of the chemically pure substances in a series of patients; format: in vivo; settings: subkutan
Excerpt: Es wurden ferner die chemisch reinen Substanzen α -MSH und ß -MSH subkutan bei einer Reihe von Patienten gespritzt.

[2] = tested on: Patienten; experiment: Long-term trial, subcutaneous application over 2 - 15 months in a series of patients (MS therapy); format: in vivo
Excerpt: Das Tetrapeptid His-Phe-Arg-Trp wurde in einem Langzeitversuch über 2 - 15 Monate hinweg einer Reihe von Patienten subkutan appliziert. Dabei wurden folgende Ergebnisse erhalten: • Zwei Drittel der Patienten hatten ein subjektives - aber durchaus auch objektivierbares - Gefühl der Frische, höheren Lebensmut und größerer Leistungsfähigkeit.
Verschiedene Anhaltspunkte machten deutlich, daß es sich nicht um einen Cortisoneffekt handelte.
Wenn ein bis zwei Tage lang nicht oder mit Placebos behandelt wurde, trat bei allen Patienten eine objektive Verschlechterung in Richtung der bisherigen Beschwerden auf; auch subjektiv waren alle Patienten eindrucksvoll in der Lage, anhand der Wirkung Spritzen mit Substanz von Placebos zu unterscheiden. Die richtige Dosierung des erfindungsgemäßen Mittels ist kritisch. Uberdosierungen machten sich in Form von erhöhtem Blutdruck, Hitzegefühl, Kurzatmigkeit und bei kreislauflabilen Patienten in deren typischen Beschwerden bemerkbar. Die normale Tagesdosis des Tentrapeptides zur MS-Therapie wurde auf etwa […] festgesetzt, in Einzelfällen - solange es ohne die obengenannten Uberdosierungsphänomene vertragen wird - höher bzw. im Sinne einer Erhaltungsdosis oder bei kreislauflabilen Patienten auch niedriger.

[3] = tested on: menschlichen Auges; experiment: Eye drops, effect on vision; format: in vivo, Patienten
Excerpt: Diese Fähigkeit zeigte insbesondere das Tetrapeptid His-Phe-Arg-Trp.
Es wurden täglich ca. 2pg pro Auge des Tetrapeptides in physiologischer Kochsalzlösung in der Form von Augentropfen verabreicht. Dabei wurden die vorstehend erwähnten Erfolge erzielt.

[4] = Storage stability (loss of activity on storage); format: physicochemical
Method: (§1) Die Erfahrungen mit α-, β- und 4 -MSH bzw. dem erwähnten Tetrapeptid zeigen, daß diese Substanzen ausserordentlich empfindlich und labil sind. […] Bei der Verbindung des Tetrapeptides mit einer Depotsubstanz sollte eine Wirkungsdauer von 12-15 Stunden angestrebt werden.
(§2) Während die Halbwertzeit des reinen Tetrapeptides ca. 1 Woche beträgt, trat bei dem hergestellten Depotpräparat ein geringerer Wirkungsverlust als 10% pro Woche auf. Im Körper hält der Depoteffekt zwischen 6 - 12h an. Als Tagesdosis von dem Depotpräparat empfiehlt sich eine Menge von etwa 1 ml, was etwa 200 Mikrogramm entspricht.
Für das Depotpräparat ist keine gekühlte Lagerung mehr erforderlich.

[5] = Comparative trials with peptides of six, four or two amino acids of the chain Met-Glu-His-Phe-Arg-Trp-Gly; format: in vivo
Method: Die Wirkung von etwa 0,3 mg <-MSH entsprach etwa der Wirkung von 0,1 mg dieses Tetrapeptides.

[6] = Therapeutic use of melanotropin peptides, overall results (no method given); format: in vivo; settings: general statement, treatment of diencephalon/hypophysis dysfunction, Multiple Sklerose
[7] = Duration of effect in the body; format: in vivo; settings: without depot substance
Method: as §1, §2

[8] = Augentropfen in physiologischer Kochsalzlösung, daily

Compound	Wirkung (comparison between the substances) ([1]; patients)	Tolerability together with Cortison ([2]; in vivo)	Krankheitsbild (course) ([2]; subkutan, 2 - 15 Monate)	Reports of individual patients ([2]; subkutan, 2 - 15 Monate)	Share of patients with Gefühl der Frische, höheren Lebensmut und größerer Leistungsfähigkeit ([2]; subkutan, 2 - 15 Monate)	Spastik ([2]; subkutan, 2 - 15 Monate)	Absetzen von Cortison ([2]; withdrawal of Cortison under the tetrapeptide)	Fähigkeit des Patienten in bezug auf die Zusammensetzung von bewegten Bildern [3, 8]	Wahrnehmung von Lichtreizen [3, 8]	Sehfähigkeit des menschlichen Auges ([3]; in vivo)	Lagerfähigkeit ([4]; als Reinsubstanz tiefgekühlt)	Loss of Wirksamkeit ([4]; in destilliertem Wasser gelöst, bei Kühlschranktemperatur aufbewahrt)	Halbwertzeit ([4]; pure tetrapeptide, storage)	Equally effective amount (Wirkung entsprach) ([5]; amounts of the two substances with about the same effect)	Positivwirkung und Negativwirkung ([5]; comparison among peptides of the seven-residue chain)	Ergebnisse [6]	Loss of effect im Körper [7]	kurzzeitiger Besserungseffekt (Kräftigung, Frischegefühl) ([1]; time to onset, at first application possibly only after one to two days)
N=C(N)NCCC[C@H](NC(=O)[C@H](Cc1ccccc1)NC(=O)[C@@H](N)Cc1cnc[nH]1)C(=O)N[C@@H](Cc1c[nH]c2ccccc12)C(=O)O [Tetrapeptid His-Phe-Arg-Trp, His-Phe-Arg-Trp]	im wesentlichen die gleiche Wirkung wie α -MSH und β-MSH	gut nebeneinander vertragen	keine Verschlechterungen des Krankheitsbildes auf, sondern einige nachweisbare Verbesserungen	Normalisierung des (bisher zu niedrigen) Blutdrucks, bessere Durchblutung und Beweglichkeit der Extremitäten, Wiederherstellung des Tag-Nacht-Rhythmus (keine Schlafstörungen mehr), bessere Sehfähigkeit, Normalisierung des Zyklus, Minderung von Gleichgewichtsstörungen	Zwei Drittel	starkes Nachlasen der Spastik	wesentlich erleichtert und ohne Rückschläge oder Komplikationen beschleunigt	wesentlich verbessert	stabilisiert	Verbesserung der Sehfähigkeit	lagerfähig	etwa die Hälfte	ca. 1 Woche	~0,1 mg	stärksten Positivwirkung und der schwächsten Negativwirkung	besten Ergebnisse	innerhalb kurzer Zeit	
β -Melanotropin [ß -MSH]																		innerhalb der ersten Stunde
